Laboratory results: BindingDB's records for doi:10.1016/j.bmcl.2009.12.099 (Methylgene, 2010)
pIC50: −log10 of the molar value.

Columns and labels:
[1] = Inhibition of c-MET in human DU145 cells by scattering assay
[2] = Inhibition of c-MET in human A549 cells by wound healing assay

`Cn1cnc(-c2cc3nccc(Oc4ccc(NC(CC(=O)Nc5ccc(F)cc5)C(F)(F)F)cc4)c3s2)c1` (stereo unspecified) [4,4,4-trifluoro-N-(4-fluorophenyl)-3-(4-(2-(1-methyl-1H-imidazol-4-yl)thieno[3,2-b]pyridin-7-yloxy)phenylamino)butanamide] gave a pIC50 [1] of 5.70 and a pIC50 [2] of 5.70.
Molecule `Cn1cnc(-c2cc3nccc(Oc4ccc(NC(CC(=O)Nc5ccc(F)cc5)C(F)(F)F)cc4F)c3s2)c1` (stereo unspecified) [4,4,4-trifluoro-3-(3-fluoro-4-(2-(1-methyl-1H-imidazol-4-yl)thieno[3,2-b]pyridin-7-yloxy)phenylamino)-N-(4-fluorophenyl)butanamide] has a pIC50 [1] of 6.40 and a pIC50 [2] of 6.40.
For `COc1ccccc1NC(=O)CC(Nc1ccc(Oc2ccnc3cc(-c4cn(C)cn4)sc23)c(F)c1)C(F)(F)F` (stereo unspecified) [4,4,4-trifluoro-3-(3-fluoro-4-(2-(1-methyl-1H-imidazol-4-yl)thieno[3,2-b]pyridin-7-yloxy)phenylamino)-N-(2-methoxyphenyl)butanamide], the pIC50 [1] was 5.00 and the pIC50 [2] was 5.70.
